Assay results published in patent US20060258644A1, “Pyrrolobenzodiazepines and heteroaryl, aryl and cycloalkylamino ketone derivatives as follicle stimulating hormone receptor (FSH-R) antagonists” (Wyeth, priority 2005, published 2006).
pIC50: −log10 of the molar value. Counter-ions that a name gives are not always drawn. Like-named read-outs stand apart in the source and are kept apart here.

Experiments:
[1] = target: T1, human FSH receptor (Homo sapiens, UniProt P23945); experiment: FSH receptor-dependent CRE-luciferase reporter gene assay (CHO FSH-R 6CRE-Luc cells); type: cell-based; settings: for inhibition at 30 µM: test concentration in μM in parentheses (30 μM), % inhibition of the response to the EC50 of FSH
T1 construct: host or cells: CHO-K1 (CHO FSH-R 6CRE-Luc, 1D7 cells)
T1 sequence (P23945 18-695): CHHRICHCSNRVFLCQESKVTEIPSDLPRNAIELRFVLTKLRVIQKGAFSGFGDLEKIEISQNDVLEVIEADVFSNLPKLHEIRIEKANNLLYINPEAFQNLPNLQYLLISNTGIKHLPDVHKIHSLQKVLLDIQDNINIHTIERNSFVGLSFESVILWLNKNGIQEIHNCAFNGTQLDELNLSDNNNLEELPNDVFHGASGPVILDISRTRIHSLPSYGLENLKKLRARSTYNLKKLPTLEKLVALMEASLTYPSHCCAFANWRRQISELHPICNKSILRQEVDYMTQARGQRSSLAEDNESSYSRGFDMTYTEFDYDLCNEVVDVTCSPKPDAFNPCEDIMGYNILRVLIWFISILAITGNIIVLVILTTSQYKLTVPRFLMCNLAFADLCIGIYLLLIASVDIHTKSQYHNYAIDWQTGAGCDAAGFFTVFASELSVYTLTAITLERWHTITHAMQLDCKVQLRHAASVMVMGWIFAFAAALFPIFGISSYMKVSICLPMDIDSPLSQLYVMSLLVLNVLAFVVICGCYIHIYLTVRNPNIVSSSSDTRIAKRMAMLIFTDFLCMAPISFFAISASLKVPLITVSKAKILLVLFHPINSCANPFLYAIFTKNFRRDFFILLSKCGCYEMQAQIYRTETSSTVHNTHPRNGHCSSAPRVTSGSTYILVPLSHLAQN
Excerpt: Follicle-Stimulating Hormone Receptor-Dependent CRE-Luciferase Reporter Gene Assay for the Identification of Follicle-Stimulating Hormone (FSH) Antagonists
This procedure was used to identify and determine the relative potencies of human FSH receptor antagonists using a Chinese hamster ovarian cell line that stably produces the human FSH receptor and a luciferase reporter gene regulated by cAMP response elements.
The compounds were subsequently diluted in DMSO to working dilutions of 1 and 20 or 30 mM for 2-dose testing format and 1 μM-10 mM for dose-response format. The DMSO dilutions were diluted 500-fold in sterile growth medium [D-MEM/F-12 (GIBCO/BRL; Grand Island N.Y.) containing 15 mM HEPES, 2 mM 1-glutamine, pyridoxine hydrochloride, phenol red and 5% FetalClone II (HyClone Laboratories, Inc; Logan, Utah), 0.2% DMSO, 100 units penicillin G/ml, and 100 μg streptomycin sulfate/ml (GIBCO/BRL)]. The concentration of the vehicle in each of the compound dilutions was the same. • Positive Controls: Purified human FSH (>98%) was purchased from Cortex Biochem, Inc. (San Leandro, Calif.) and WAY-162002 (an FSH-R thiazolidinone antagonist) was obtained from the Wyeth Research compound repository. Preparation of Cells
The CHO FSH-R 6CRE-Luc cells (1D7 cells) were obtained from Affymax (Palo Alto, Calif.). These Chinese hamster ovary cells (CHO—K1) were genetically engineered to stably express the recombinant human FSH receptor gene and a luciferase reporter gene under the regulation of 6 copies of a cAMP response element. The cells were plated one day prior to treatment into 96-well white opaque plates at a density of 50,000 cells/100 μl/well in growth medium. On the day of treatment, the growth medium was removed from the wells by aspiration and 50 μl of fresh growth medium was added to each well. The cells were incubated at 37° C. in a humidified incubator with 5% CO2/95% air.
The treated cells were incubated for 4 hours at 37° C. in a humidified incubator with 5% CO2/95% air. At the end of-the incubation period, luciferase activity was measured by chemiluminescence using a commercially available kit (LucScreen, Tropix, Inc., Bedford, Mass.) according to the manufacturer's specifications, except that Buffer 1 and Buffer 2 were mixed together in equal proportion prior to the addition of 100 μl of the combined reagents to each well. Chemiluminescence was detected using a luminometer (EG & G Berthold Microlumat LB 96 P, Wallac, Gaithersburg, Md.) with chemiluminescence measured for 1 sec/well. Background luminescence was measured for each well prior to the addition of the LucScreen reagent.
In the 96-well 2-dose format, each compound was tested in duplicate at each dose. […] One plate was used to test a maximum of 22 compounds.
The EC50 of purified human FSH alone was tested in triplicate with each test compound. The doses chosen to test each compound were extrapolated from the initial 2-dose screening process. Along with the test compounds, purified human FSH was also tested in a dose response (0.03, 0.1, 0.3, 1, 3, 10, and 30 ng/ml) for a positive control and quality control. One plate was used for 3 test compounds and the FSH positive control.
Luciferase activity is expressed as relative light units/sec/well. Luciferase activity in antagonist was compared to the appropriate negative and positive controls. For 2-dose testing, results are reported as luciferase activity and are expressed as % inhibition of the response obtained from the EC50 of FSH. For dose-response testing, results are reported as IC50 values. Data were analyzed statistically by one-way analysis of variance with appropriate weighting and transformation and relevant paired test as determined by Biometrics (Wyeth Research, Princeton, N.J.). IC50 values were calculated using the Stat/Excel program developed by Biometrics with appropriate weighting and transformation.

[2] = dose-response in presence of EC50 of purified human FSH, read-out: CRE IC50

`NC(=O)c1cccc(N2C(=O)[C@@H](CC(=O)NCCc3c[nH]c4ccccc34)S[C@H]2c2ccc(C#Cc3ccccc3)s2)c1` (relative stereo) [3-[(2S*,5R*)-5-{[2-(1H-Indol-3-yl)-ethylcarbamoyl]-methyl}-4-oxo-2-(5-phenylethynyl-thiophen-2-yl)-thiazolidin-3-yl]-benzamide, reference compound] showed a pIC50 ([1]; positive control, in the presence of EC50 of purified human FSH, read-out: IC50 in CRE-luciferase assay) of 5.70.
`Cc1ccccc1-c1ccc(C(=O)N2Cc3ccc(C(=O)CNc4cccnc4)n3Cc3ccccc32)cc1C` [Example 1, 1-{10-[(2,2′-Dimethyl-1,1′-biphenyl-4-yl)carbonyl]-10,11-dihydro-5H-pyrrolo[2,1-c][1,4]benzodiazepin-3-yl}-2-(pyridin-3-ylamino)ethanone formic acid salt] showed an inhibition at 30 µM [1] of 4%.
In the case of `O=C(CCc1cccnc1)c1ccc2n1Cc1ccccc1N(C(=O)c1ccc(-c3ccccc3)cc1)C2` [Example 2, 1-[10-(1,1′-Biphenyl-4-ylcarbonyl)-10,11-dihydro-5H-pyrrolo[2,1-c][1,4]benzodiazepin-3-yl]-3-pyridin-3-ylpropan-1-one formic acid salt], the pIC50 [1, 2] was 4.97.
`Cc1cc(Cl)ccc1OCC(=O)N1Cc2ccc(C(=O)c3ccc(Cl)cc3)n2Cc2ccccc21` [Example 4, {10-[(4-Chloro-2-methylphenoxy)acetyl]-10,11-dihydro-5H-pyrrolo[2,1-c][1,4]benzodiazepin-3-yl}(4-chlorophenyl)methanone] showed an inhibition at 30 µM [1] of 22% and a melting point of 175 to 176 °C.
In the case of `Cc1cc(Cl)ccc1OCC(=O)N1Cc2ccc(C(=O)CCc3ccccc3)n2Cc2ccccc21` [Example 5, 1-{10-[(4-Chloro-2-methylphenoxy)acetyl]-10,11-dihydro-5H-pyrrolo[2,1-c][1,4]benzodiazepin-3-yl}-3-phenylpropan-1-one], the pIC50 [1, 2] was < 4.52 and the melting point was 130 to 134 °C.
For `Cc1cc(Cl)ccc1OCC(=O)N1Cc2ccc(C(=O)c3cccc4ccccc34)n2Cc2ccccc21` [Example 6, {10-[(4-Chloro-2-methylphenoxy)acetyl]-10,11-dihydro-5H-pyrrolo[2,1-c][1,4]benzodiazepin-3-yl}(1-naphthyl)methanone], the pIC50 [1, 2] was < 4.52 and the melting point was 130 to 134 °C.
For `Cc1cc(Cl)ccc1OCC(=O)N1Cc2ccc(C(=O)c3ccc(-c4ccccc4)cc3)n2Cc2ccccc21` [Example 7, 1,1′-Biphenyl-4-yl{10-[(4-chloro-2-methylphenoxy)acetyl]-10,11-dihydro-5H-pyrrolo[2,1-c][1,4]benzodiazepin-3-yl}methanone], the pIC50 [1, 2] was < 4.52 and the melting point was 102 to 105 °C.
For `Cc1cc(Cl)ccc1OCC(=O)N1Cc2ccc(C(=O)c3ccc(C(C)(C)C)cc3)n2Cc2ccccc21` [Example 8, (4-Tert-butylphenyl){10-[(4-chloro-2-methylphenoxy)acetyl]-10,11-dihydro-5H-pyrrolo[2,1-c][1,4]benzodiazepin-3-yl}methanone], the pIC50 [1, 2] was < 4.52 and the melting point was 168 °C.
With `Cc1cc(Cl)ccc1OCC(=O)N1Cc2ccc(C(=O)c3ccccc3-c3ccccc3)n2Cc2ccccc21` [Example 9, 1,1′-Biphenyl-2-yl{10-[(4-chloro-2-methylphenoxy)acetyl]-10,11-dihydro-5H-pyrrolo[2,1-c][1,4]benzodiazepin-3-yl}methanone] the pIC50 [1, 2] was < 4.52.
For `O=C(c1ccc(Cl)cc1)c1ccc2n1Cc1ccccc1N(C(=O)COc1ccc(Cl)cc1)C2` [Example 10, {10-[(4-Chlorophenoxy)acetyl]-10,11-dihydro-5H-pyrrolo[2,1-c][1,4]benzodiazepin-3-yl}(4-chlorophenyl)methanone], the pIC50 [1, 2] was < 4.52 and the melting point was 195 °C.
Compound `O=C(CCc1ccccc1)c1ccc2n1Cc1ccccc1N(C(=O)COc1ccc(Cl)cc1)C2` [Example 11, 1-{10-[(4-Chlorophenoxy)acetyl]-10,11-dihydro-5H-pyrrolo[2,1-c][1,4]benzodiazepin-3-yl}-3-phenylpropan-1-one] has an inhibition at 30 µM [1] of 8% and a melting point of 126 to 128 °C.
For `CC(C)(C)c1ccc(C(=O)c2ccc3n2Cc2ccccc2N(C(=O)COc2ccc(Cl)cc2)C3)cc1` [Example 12, (4-tert-Butylphenyl){10-[(4-chlorophenoxy)acetyl]-10,11-dihydro-5H-pyrrolo[2,1-c][1,4]benzodiazepin-3-yl}methanone], the pIC50 [1, 2] was < 4.52 and the melting point was 171 °C.
`O=C(c1ccc(-c2ccccc2)cc1)c1ccc2n1Cc1ccccc1N(C(=O)COc1ccc(Cl)cc1)C2` [Example 13, 1,1′-Biphenyl-4-yl{10-[(4-chlorophenoxy)acetyl]-10,11-dihydro-5H-pyrrolo[2,1-c][1,4]benzodiazepin-3-yl}methanone] gave an inhibition at 30 µM [1] of 14% and a melting point of 155 to 157 °C.
With `O=C(c1ccccc1-c1ccccc1)c1ccc2n1Cc1ccccc1N(C(=O)COc1ccc(Cl)cc1)C2` [Example 14, 1,1′-Biphenyl-2-yl{10-[(4-chlorophenoxy)acetyl]-10,11-dihydro-5H-pyrrolo[2,1-c][1,4]benzodiazepin-3-yl}methanone] the pIC50 [1, 2] was < 4.52.
In the case of `Cc1ccccc1-c1ccc(C(=O)N2Cc3ccc(C(=O)CCc4cccnc4)n3Cc3ccccc32)cc1` [Example 15, 1-{10-[(2′-Methyl-1,1′-biphenyl-4-yl)carbonyl]-10,11-dihydro-5H-pyrrolo[2,1-c][1,4]benzodiazepin-3-yl}-3-pyridin-3-ylpropan-1-one], the pIC50 [1, 2] was 4.92 and the melting point was 135 to 136 °C.
